Results reported in patent publication US8658639B2, “N-substituted-cyclic amino derivative” (Dainippon Sumitomo Pharma Co., Ltd, priority 2009, dated 2014).

Target: T1, Recombinant human renin (Homo sapiens, UniProt P00797)
T1 sequence (P00797 67-406): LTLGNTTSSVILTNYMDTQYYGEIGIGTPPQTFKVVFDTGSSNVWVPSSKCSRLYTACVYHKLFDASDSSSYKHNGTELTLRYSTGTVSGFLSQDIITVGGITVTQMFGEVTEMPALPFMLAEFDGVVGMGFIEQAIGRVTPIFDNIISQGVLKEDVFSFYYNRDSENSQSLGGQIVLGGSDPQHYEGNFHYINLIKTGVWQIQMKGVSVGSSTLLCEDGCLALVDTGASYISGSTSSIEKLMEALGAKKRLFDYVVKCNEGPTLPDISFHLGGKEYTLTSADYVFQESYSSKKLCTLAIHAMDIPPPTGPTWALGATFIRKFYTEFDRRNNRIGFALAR
Assay: In vitro renin inhibitory activity assay
Type: biochemical
Details: recombinant human renin 4.2 ng/mL, substrate 4 μM, 37° C., one hour, pH 7.4
Description: Experiment 1: In Vitro Renin Inhibitory Activity Assay
Recombinant human renin (4.2 ng/mL) was reacted in 0.1M HEPES buffer (pH 7.4) containing 0.1M NaCl, 1 mM EDTA and 0.1 mg/mL BSA together with a substrate and a test compound at 37° C. for one hour. As the substrate, Arg-Glu(EDANS)-Ile-His-Pro-Phe-His-Leu-Val-Ile-His-Thr-Lys(DABCYL)-Arg (SEQ ID NO: 1) or DABCYL-γ-Abu-Ile-His-Pro-Phe-His-Leu-Val-Ile-His-Thr-EDANS (SEQ ID NO: 2) was added in such an amount so that the final concentration thereof became 4 μM. The elevated fluorescence intensity at the exciting wavelength 340 nm and the fluorescence wavelength 500 nm was measured by a fluorescence plate reader. The concentration of a test compound to be needed to inhibit an enzyme activity in the presence of a test compound in several concentrations by 50% was calculated as an IC50 value. The test compounds were diluted in DMSO and used in this Experiment.

IC50 [nM]	SMILES
160	CCC(=O)NCCN1C(=O)C(C)(C)Oc2cc(C)c(C(=O)N(C(C)C)[C@@H]3CCCN(C(=O)OC(C)OC(=O)C(C)C)C3)cc21 (stereo partly drawn) [Example 1, 1-(Isobutyryloxy)ethyl (3R)-3-[isopropyl({2,2,7-trimethyl-3-oxo-4-[2-(propionylamino)ethyl]-3,4-dihydro-2H-1,4-benzoxazin-6-yl}carbonyl)amino]piperidine-1-carboxylate]
505	CCC(=O)NCCN1C(=O)C2(CCC2)Oc2cc(C)c(C(=O)N(C(C)C)[C@@H]3CCCN(C(=O)O[C@@H](C)OC(=O)C(C)C)C3)cc21 [Example 83]
15	CCC(=O)NCCN1C(=O)C2(CC2)Oc2cc(C)c(C(=O)N(C(C)C)C3CCCN(C(=O)OC(C)OC(=O)C(C)C)C3)cc21 (centres unmarked) [Example 42]
2.8	CCC(=O)NCCN1C(=O)C(C)(C)Oc2cc(C)c(C(=O)N(C(C)C)C3CCCN(C(=O)OC(C)OC(=O)C(N)C(C)C)C3)cc21 (centres unmarked) [Example 62]
69	CCC(=O)NCCN1C(=O)C2(CC2)Oc2cc(C)c(C(=O)N(C(C)C)C3CCCN(C(=O)OC(C)OC(=O)C4CCOCC4)C3)cc21 (centres unmarked) [Example 43]
1230	CCC(=O)NCCN1C(=O)C(C)(C)Oc2cc(C)c(C(=O)N(C(C)C)[C@@H]3CCCN(C(=O)O[C@@H](C)OC(=O)C(C)C)C3)cc21 [Example 66]
21	CCC(=O)NCCN1C(=O)C2(CCC2)Oc2cc(C)c(C(=O)N(C(C)C)C3CCCN(C(=O)OC(C)OC(=O)CCCOC)C3)cc21 (centres unmarked) [Example 84]
74	CCC(=O)NCCN1C(=O)C2(CCC2)Oc2cc(C)c(C(=O)N(C(C)C)C3CCCN(C(=O)OC(OC(=O)CC)C(C)C)C3)cc21 (centres unmarked) [Example 46]
68	CCC(=O)NCCN1C(=O)C2(CC2)Oc2cc(C)c(C(=O)N(C(C)C)C3CCCN(C(=O)OC(C)OC(=O)CC)C3)cc21 (centres unmarked) [Example 41]
1.9	CCC(=O)NCCN1C(=O)C2(CCC2)Oc2cc(C)c(C(=O)N(C(C)C)[C@@H]3CCCN(C(=O)OC(C)OC(=O)c4cccnc4)C3)cc21 (stereo partly drawn) [Example 89, 1-[({(3R)-3-[({7-Methyl-3-oxo-4-[2-(propanoylamino)ethyl]-3,4-dihydrospiro[1,4-benzoxazine-2,1′-cyclobutan]-6-yl}carbonyl)(2-propanyl)amino]-1-piperidinyl}carbonyl)oxy]ethyl 3-pyridine carboxylate]
140	CCOC(=O)OC(C)OC(=O)N1CCCC(N(C(=O)c2cc3c(cc2C)OC2(CCC2)C(=O)N3CCNC(=O)CC)C(C)C)C1 (centres unmarked) [Example 34]
1890	CCC(=O)NCCN1C(=O)[C@](C)(COC)Oc2cc(C)c(C(=O)N(C(C)C)[C@@H]3CCCN(C(=O)O[C@@H](C)OC(=O)C(C)C)C3)cc21 [Example 94]
340	CCC(=O)NCCN1C(=O)C2(CCC2)Oc2cc(C)c(C(=O)N(C(C)C)C3CCCN(C(=O)OC(C)OC(=O)C4CCOCC4)C3)cc21 (centres unmarked) [Example 48]
52	CCC(=O)NCCN1C(=O)C2(CCC2)Oc2cc(C)c(C(=O)N(C(C)C)C3CCCN(C(=O)OC(OC(=O)C(C)C)C(C)C)C3)cc21 (centres unmarked) [Example 45]
2.7	CCC(=O)NCCN1C(=O)C2(CCC2)Oc2cc(C)c(C(=O)N(C(C)C)C3CCCN(C(=O)OC(OC(C)=O)C(C)C)C3)cc21 (centres unmarked) [Example 35]

The next lines start with the molecule.

SMILES	IC50 [nM]
CCC(=O)NCCN1C(=O)C(C)(C)Oc2cc(C)c(C(=O)N(C(C)C)C3CCCN(C(=O)OC(C)OC(=O)OC(C)C)C3)cc21 (centres unmarked) [Example 8]	410
CCC(=O)NCCN1C(=O)C(C)(C)Oc2cc(C)c(C(=O)N(C(C)C)[C@@H]3CCCN(C(=O)OCOC(=O)OCC4CC4)C3)cc21 [Example 11]	460
CCC(=O)NCCN1C(=O)C(C)(C)Oc2cc(C)c(C(=O)N(C(C)C)C3CCCN(C(=O)OC(OC(=O)CC)C(C)C)C3)cc21 (centres unmarked) [Example 20]	91
CCC(=O)NCCN1C(=O)C(C)(C)Oc2cc(C)c(C(=O)N(C(C)C)C3CCCN(C(=O)OC(C)OC(=O)c4cccnc4)C3)cc21 (centres unmarked) [Example 59]	38
CCOC(=O)O[C@H](C)OC(=O)N1CCC[C@@H](N(C(=O)c2cc3c(cc2C)OC(C)(C)C(=O)N3CCNC(=O)CC)C(C)C)C1 [Example 91]	710
CCC(=O)NCCN1C(=O)C(C)(C)Oc2cc(C)c(C(=O)N(C(C)C)C3CCCN(C(=O)OC(C)OC(=O)CC)C3)cc21 (centres unmarked) [Example 18]	3.6
CCC(=O)NCCN1C(=O)C(C)(COC)Oc2cc(C(F)(F)F)c(C(=O)N(C(C)C)C3CCCN(C(=O)OC(OC(=O)C(C)C)C(C)C)C3)cc21 (centres unmarked) [Example 76]	0.56
CCC(=O)NCCN1C(=O)C(C)(C)Oc2cc(C(F)(F)F)c(C(=O)N(C(C)C)[C@@H]3CCCN(Cc4oc(=O)oc4C)C3)cc21 [Example 31, N-Isopropyl-2,2-dimethyl-N-{(3R)-1-[(5-methyl-2-oxo-1,3-dioxol-4-yl)methyl]piperidin-3-yl}-3-oxo-4-[2-(propionylamino)ethyl]-7-(trifluoromethyl)-3,4-dihydro-2H-1,4-benzoxazine-6-carboxamide]	0.38
Cc1cc2c(cc1C(=O)N(C(C)C)[C@@H]1CCCN(C(=O)OCc3oc(=O)oc3C)C1)N(CCNC(=O)C(F)F)C(=O)C1(CC1)O2 [Example 39]	3.6
CCC(=O)NCCN1C(=O)C(C)(COC)Oc2cc(C)c(C(=O)N(C(C)C)C3CCCN(C(=O)OC(C)OC(=O)CC)C3)cc21 (centres unmarked) [Example 86]	14
CCC(=O)NCCN1C(=O)C(C)(C)Oc2cc(C)c(C(=O)N(C(C)C)[C@@H]3CCCN(C(=O)OCc4oc(=O)oc4-c4ccccc4)C3)cc21 [Example 7]	1.3
CCC(=O)NCCN1C(=O)C(C)(C)Oc2cc(C(F)(F)F)c(C(=O)N(C(C)C)C3CCCN(C(=O)OC(C)OC(=O)C(C)C)C3)cc21 (centres unmarked) [Example 26]	21
CCC(=O)NCCN1C(=O)C(C)(C)Oc2cc(C)c(C(=O)N(C(C)C)[C@@H]3CCCN(C(=O)OCOC(=O)C(C)C)C3)cc21 [Example 4]	42
CCOC(=O)OC(C)OC(=O)N1CCCC(N(C(=O)c2cc3c(cc2C(F)(F)F)OC(C)(COC)C(=O)N3CCNC(=O)CC)C(C)C)C1 (centres unmarked) [Example 38]	58
CCC(=O)NCCN1C(=O)C(C)(C)Oc2cc(C)c(C(=O)N(C(C)C)C3CCCN(C(=O)OC(OC(C)=O)C(C)C)C3)cc21 (centres unmarked) [Example 19]	11
CCC(=O)NCCN1C(=O)C(C)(C)Oc2cc(C)c(C(=O)N(C(C)C)[C@@H]3CCCN(C(=O)O[C@H](C)OC(=O)CC)C3)cc21 [Example 53]	48
CCC(=O)NCCN1C(=O)C(C)(C)Oc2cc(C)c(C(=O)N(C(C)C)[C@@H]3CCCN(C(=O)O[C@@H](C)OC(=O)CC)C3)cc21 [Example 52]	42
CCC(=O)NCCN1C(=O)C2(CC2)Oc2cc(C)c(C(=O)N(C(C)C)[C@@H]3CCCN(C(=O)OCc4oc(=O)oc4C)C3)cc21 [Example 40]	2.6
CC(OC(=O)C(C)C)OC(=O)N1CCCC(N(C(=O)c2cc3c(cc2C(F)(F)F)OC2(CC2)C(=O)N3CCNC(=O)C(F)F)C(C)C)C1 (centres unmarked) [Example 72]	22
CCC(=O)NCCN1C(=O)C(C)(C)Oc2cc(C)c(C(=O)N(C(C)C)C3CCCN(C(=O)OC(C)OC(=O)OC4CCCCC4)C3)cc21 (centres unmarked) [Example 54]	13
CCC(=O)NCCN1C(=O)C(C)(C)Oc2cc(C)c(C(=O)N(C(C)C)[C@@H]3CCCN(C(=O)OC(C)(C)OC(C)=O)C3)cc21 [Example 21, 1-(Acetyloxy)-1-methylethyl (3R)-3-[isopropyl({2,2,7-trimethyl-3-oxo-4-[2-(propionylamino)ethyl]-3,4-dihydro-2H-1,4-benzoxazin-6-yl}carbonyl)amino]piperidine-1-carboxylate]	62
CCC(=O)NCCN1C(=O)C(C)(C)Oc2cc(C)c(C(=O)N(C(C)C)C3CCCN(C(=O)OC(C)OC(=O)CC4CC4)C3)cc21 (centres unmarked) [Example 98]	9.1
CCC(=O)NCCN1C(=O)C(C)(C)Oc2cc(C)c(C(=O)N(C(C)C)[C@@H]3CCCN(C(=O)OC(C)OC(=O)CCCO)C3)cc21 (stereo partly drawn) [Example 63, 1-[(4-Hydroxybutanoyl)oxy]ethyl (3R)-3-[isopropyl({2,2,7-trimethyl-3-oxo-4-[2-(propionylamino)ethyl]-3,4-dihydro-2H-1,4-benzoxazin-6-yl}carbonyl)amino]piperidine-1-carboxylate]	0.96
